What was measured:
[1] = test system: Susceptible An. Gambiae; assay: Bottle toxicity assay (Example 8), susceptible mosquitoes; assay type: in vivo, Anopheles gambiae
Description: (§1) Several compounds were tested to determine their toxic effect on knockdown resistant Anopheles gambiae mosquitoes and susceptible mosquitoes. Acetone and different amounts of pesticides were added to 250 ml bottles. In one bottle, only acetone was added as a control. The bottles were rotated in all directions while uncapped until all acetone was evaporated and the insecticide was coated onto the inside surfaces of the bottle. A number of knockdown resistant Anopheles gambiae mosquitoes were added to the bottle. The number of dead mosquitoes was recorded at 1 hour and 24 hours.

[2] = test system: KDR Resisant An. Gambiae; assay: Bottle toxicity assay (Example 8), knockdown resistant mosquitoes; assay type: in vivo, Anopheles gambiae
Description: as §1

[3] = test system: female Aedes aegypti (Thailand strain) mosquitoes; assay: Contact irritancy and spatial repellency screening (Example 4); assay type: in vivo; conditions: Dosage 25 nmol/cm^2; mapped with 3000 other compounds
[4] = test system: Ae. Aegypti, Isla Mujer strain (metabolically pyrethroid resistant); assay: Contact irritancy on metabolically resistant mosquitoes (Example 5); assay type: in vivo
Description: Four compounds of formula (I) were tested for contact irritancy (i.e., movement away from the source after physical contact) at low doses on female Aedes aegypti (Thailand strain) mosquitoes. The contact irritant response was determined by use of the contact irritant assay disclosed by Grieco et al. in “A New Classification System for the Actions of IRS Chemicals Traditionally Used for Malaria Control,” Plos One, Issue 8 (2007) (available at www.plosone.org). The assay used was a cylindrical assembly that included a metal treatment end to which 10 mosquitoes were introduced and a clear receiving chamber. The treatment end included a netting strip (nylon organdy) that was treated with the insecticide of interest at the relevant dose. A butterfly valve separated the treatment end from the remainder of the assembly.
Each composition was applied to the netting strip at a varied dose via a 1.5 ml acetone solution. Four (4) treatment concentrations were used—0.0025 nmol/cm^2, 0.025 nmol/cm^2, 0.25 nmol/cm^2 and 2.5 nmol/cm^2. Netting was allowed to dry for 15 minutes prior to placement in the cylinder. Control assays were performed with netting treated with acetone only.
For each run, 10 mosquitoes were transferred into the treatment end of the assembly and, after 30 seconds, the butterfly valve was opened. The valve was closed after 10 minutes and the number of mosquitoes in the clear end (i.e., the number of escaped mosquitoes) was tested.
The contact irritancy protocol of Example 2 was used to determine contact irritancy against mosquitoes (Ae. Aegypti) that had acquired metabolic resistance against pyrethroids. Alphacypermethrin and transfluthrin were also tested. Three mosquito strains were tested—Houston which is pyrethroid susceptible, That which is pyrethroid tolerant and Isla Mujer which is metabolically pyrethroid resistant.

[5] = test system: Ae. aegypti Houston strain (pyrethroid susceptible); assay: Toxicity assay on treated netting (Example 7), Houston strain; assay type: in vivo
In short: (§2)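 Twenty Ae. aegypti per chamber exposed to treated netting for 1 h, knockdown recorded, then held with 10% sucrose. Mortality scored at 24 h; acetone-treated netting as control, six replicates per treatment concentration.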

[6] = test system: Ae. aegypti Thai strain (pyrethroid tolerant); assay: Toxicity assay on treated netting (Example 7), Thai strain; assay type: in vivo
In short: as §2

[7] = test system: Ae. aegypti Isla mujeres strain (metabolically pyrethroid resistant); assay: Toxicity assay on treated netting (Example 7), Isla mujeres strain; assay type: in vivo
In short: as §2

[8] = Dose 0.00025 μg/bottle, Strain Tested F123, Time 1 hour
[9] = Dose 0.00025 μg/bottle, Strain Tested F123, Time 24 hours
[10] = Dose 0.0025 μg/bottle, Strain Tested F122, Time 1 hour
[11] = Dose 0.0025 μg/bottle, Strain Tested F122, Time 24 hours
[12] = Dose 0.0025 μg/bottle, Strain Tested F123, Time 1 hour
[13] = Dose 0.0025 μg/bottle, Strain Tested F123, Time 24 hours
[14] = Dose 0.025 μg/bottle, Strain Tested F122, Time 1 hour
[15] = Dose 0.025 μg/bottle, Strain Tested F122, Time 24 hours
[16] = Dose 0.025 μg/bottle, Strain Tested F123, Time 1 hour
[17] = Dose 0.025 μg/bottle, Strain Tested F123, Time 24 hours
[18] = Dose 0.25 μg/bottle, Strain Tested F122, Time 1 hour
[19] = Dose 0.25 μg/bottle, Strain Tested F122, Time 24 hours
[20] = Dose 0.25 μg/bottle, Strain Tested F123, Time 1 hour
[21] = Dose 0.25 μg/bottle, Strain Tested F123, Time 24 hours
[22] = Dose 2.5 μg/bottle, Strain Tested F122, Time 1 hour
[23] = Dose 2.5 μg/bottle, Strain Tested F122, Time 24 hours
[24] = Dose 2.5 μg/bottle, Strain Tested F123, Time 1 hour
[25] = Dose 2.5 μg/bottle, Strain Tested F123, Time 24 hours
[26] = Dose 25 μg/bottle, Strain Tested F123, Time 1 hour
[27] = Dose 25 μg/bottle, Strain Tested F123, Time 24 hours
[28] = Dose 0.025 nm/cm^2, Time 1 hour
[29] = Dose 0.025 nm/cm^2, Time 24 hours
[30] = Dose 0.0725 nm/cm^2, Time 1 hour
[31] = Dose 0.0725 nm/cm^2, Time 24 hours
[32] = Dose 0.125 nm/cm^2, Time 1 hour
[33] = Dose 0.125 nm/cm^2, Time 24 hours
[34] = Dose 0.25 nm/cm^2, Time 24 hours
[35] = Dose 2.5 nm/cm^2, Time 24 hours

Compound: CC1(C)C(C=C(Cl)C(F)(F)F)C1C(=O)OCc1ccc(F)c(C(F)(F)F)c1F (stereo not drawn) [Compound 1405]
- Susceptible An. Gambiae (% dead (SE)) [1, 8]: 100%
- Susceptible An. Gambiae (% dead (SE)) [1, 9]: 87%
- Susceptible An. Gambiae (% dead (SE)) [1, 10]: 100%
- Susceptible An. Gambiae (% dead (SE)) [1, 11]: 95%
- Susceptible An. Gambiae (% dead (SE)) [1, 12]: 100%
- Susceptible An. Gambiae (% dead (SE)) [1, 13]: 100%
- Susceptible An. Gambiae (% dead (SE)) [1, 14]: 100%
- Susceptible An. Gambiae (% dead (SE)) [1, 15]: 100%
- Susceptible An. Gambiae (% dead (SE)) [1, 16]: 100%
- Susceptible An. Gambiae (% dead (SE)) [1, 17]: 100%
- Susceptible An. Gambiae (% dead (SE)) [1, 18]: 100%
- Susceptible An. Gambiae (% dead (SE)) [1, 19]: 100%
- Susceptible An. Gambiae (% dead (SE)) [1, 20]: 100%
- Susceptible An. Gambiae (% dead (SE)) [1, 21]: 100%
- Susceptible An. Gambiae (% dead (SE)) [1, 22]: 100%
- Susceptible An. Gambiae (% dead (SE)) [1, 23]: 100%
- Susceptible An. Gambiae (% dead (SE)) [1, 24]: 100%
- Susceptible An. Gambiae (% dead (SE)) [1, 25]: 100%
- Susceptible An. Gambiae (% dead (SE)) [1, 26]: 100%
- Susceptible An. Gambiae (% dead (SE)) [1, 27]: 100%
- KDR Resisant An. Gambiae (% dead (SE)) [2, 8]: 55%
- KDR Resisant An. Gambiae (% dead (SE)) [2, 9]: 37%
- KDR Resisant An. Gambiae (% dead (SE)) [2, 10]: 100%
- KDR Resisant An. Gambiae (% dead (SE)) [2, 11]: 66%
- KDR Resisant An. Gambiae (% dead (SE)) [2, 12]: 92%
- KDR Resisant An. Gambiae (% dead (SE)) [2, 13]: 100%
- KDR Resisant An. Gambiae (% dead (SE)) [2, 14]: 100%
- KDR Resisant An. Gambiae (% dead (SE)) [2, 15]: 100%
- KDR Resisant An. Gambiae (% dead (SE)) [2, 16]: 100%
- KDR Resisant An. Gambiae (% dead (SE)) [2, 17]: 100%
- KDR Resisant An. Gambiae (% dead (SE)) [2, 18]: 100%
- KDR Resisant An. Gambiae (% dead (SE)) [2, 19]: 100%
- KDR Resisant An. Gambiae (% dead (SE)) [2, 20]: 100%
- KDR Resisant An. Gambiae (% dead (SE)) [2, 21]: 100%
- KDR Resisant An. Gambiae (% dead (SE)) [2, 22]: 100%
- KDR Resisant An. Gambiae (% dead (SE)) [2, 23]: 100%
- KDR Resisant An. Gambiae (% dead (SE)) [2, 24]: 100%
- KDR Resisant An. Gambiae (% dead (SE)) [2, 25]: 100%
- KDR Resisant An. Gambiae (% dead (SE)) [2, 26]: 100%
- KDR Resisant An. Gambiae (% dead (SE)) [2, 27]: 100%
- effectiveness against knockdown resistant strains ([2]; summary of Table 3): effective against knockdown resistant strains
- contact irritancy and spatial repellency relative to screened compounds (FIG. 3) [3]: superior contact irritancy and spatial repellency relative to most screened compounds
- contact irritancy, resistant strain (FIG. 4) [4]: effective in resistant strains
- Houston (% dead (SE)) [5, 28]: 100%
- Houston (% dead (SE)) [5, 29]: 100%
- Houston (% dead (SE)) [5, 30]: 100%
- Houston (% dead (SE)) [5, 31]: 100%
- Houston (% dead (SE)) [5, 32]: 100%
- Houston (% dead (SE)) [5, 33]: 100%
- Houston (% dead (SE)) ([5]; Dose 0.25 nm/cm^2, Time 1 hour): 100%
- Houston (% dead (SE)) [5, 34]: 100%
- Houston (% dead (SE)) ([5]; Dose 2.5 nm/cm^2, Time 1 hour): 100%
- Houston (% dead (SE)) [5, 35]: 100%
- Thai (% dead (SE)) [6, 28]: 83.3%
- Thai (% dead (SE)) [6, 29]: 15%
- Thai (% dead (SE)) [6, 30]: 100%
- Thai (% dead (SE)) [6, 31]: 100%
- Thai (% dead (SE)) [6, 32]: 100%
- Thai (% dead (SE)) [6, 33]: 100%
- Thai (% dead (SE)) ([6]; Dose 2.5 nm/cm^2, Time 1 hour): 100%
- Thai (% dead (SE)) [6, 35]: 100%
- Isla mujeres (% dead (SE)) [7, 28]: 100%
- Isla mujeres (% dead (SE)) [7, 29]: 11.84%
- Isla mujeres (% dead (SE)) [7, 30]: 100%
- Isla mujeres (% dead (SE)) [7, 31]: 9.69%
- Isla mujeres (% dead (SE)) [7, 32]: 100%
- Isla mujeres (% dead (SE)) [7, 33]: 9.89%
- Isla mujeres (% dead (SE)) ([7]; Dose 0.25 nm/cm^2, Time 1 hour): 100%
- Isla mujeres (% dead (SE)) [7, 34]: 100%
- Isla mujeres (% dead (SE)) ([7]; Dose 2.5 nm/cm^2, Time 1 hour): 100%
- Isla mujeres (% dead (SE)) [7, 35]: 100%
- toxicity to resistant populations compared with standard compounds ([7]; summary of Table 2): more toxic to resistant populations than permethrin, matfluthrin and transfluthrin
